The source of these data is US20260356823A1, “SODIUM CHANNEL REGULATOR AND USE THEREOF” (SHANGHAI HUILUN PHARMACEUTICAL CO., LTD., priority 2022, published 2026).

For one assay, the target named is T1, human Nav1.8 (Homo sapiens, UniProt Q9Y5Y9).
T1 construct: expressed in transfected cells
T1 sequence (Q9Y5Y9 whole entry): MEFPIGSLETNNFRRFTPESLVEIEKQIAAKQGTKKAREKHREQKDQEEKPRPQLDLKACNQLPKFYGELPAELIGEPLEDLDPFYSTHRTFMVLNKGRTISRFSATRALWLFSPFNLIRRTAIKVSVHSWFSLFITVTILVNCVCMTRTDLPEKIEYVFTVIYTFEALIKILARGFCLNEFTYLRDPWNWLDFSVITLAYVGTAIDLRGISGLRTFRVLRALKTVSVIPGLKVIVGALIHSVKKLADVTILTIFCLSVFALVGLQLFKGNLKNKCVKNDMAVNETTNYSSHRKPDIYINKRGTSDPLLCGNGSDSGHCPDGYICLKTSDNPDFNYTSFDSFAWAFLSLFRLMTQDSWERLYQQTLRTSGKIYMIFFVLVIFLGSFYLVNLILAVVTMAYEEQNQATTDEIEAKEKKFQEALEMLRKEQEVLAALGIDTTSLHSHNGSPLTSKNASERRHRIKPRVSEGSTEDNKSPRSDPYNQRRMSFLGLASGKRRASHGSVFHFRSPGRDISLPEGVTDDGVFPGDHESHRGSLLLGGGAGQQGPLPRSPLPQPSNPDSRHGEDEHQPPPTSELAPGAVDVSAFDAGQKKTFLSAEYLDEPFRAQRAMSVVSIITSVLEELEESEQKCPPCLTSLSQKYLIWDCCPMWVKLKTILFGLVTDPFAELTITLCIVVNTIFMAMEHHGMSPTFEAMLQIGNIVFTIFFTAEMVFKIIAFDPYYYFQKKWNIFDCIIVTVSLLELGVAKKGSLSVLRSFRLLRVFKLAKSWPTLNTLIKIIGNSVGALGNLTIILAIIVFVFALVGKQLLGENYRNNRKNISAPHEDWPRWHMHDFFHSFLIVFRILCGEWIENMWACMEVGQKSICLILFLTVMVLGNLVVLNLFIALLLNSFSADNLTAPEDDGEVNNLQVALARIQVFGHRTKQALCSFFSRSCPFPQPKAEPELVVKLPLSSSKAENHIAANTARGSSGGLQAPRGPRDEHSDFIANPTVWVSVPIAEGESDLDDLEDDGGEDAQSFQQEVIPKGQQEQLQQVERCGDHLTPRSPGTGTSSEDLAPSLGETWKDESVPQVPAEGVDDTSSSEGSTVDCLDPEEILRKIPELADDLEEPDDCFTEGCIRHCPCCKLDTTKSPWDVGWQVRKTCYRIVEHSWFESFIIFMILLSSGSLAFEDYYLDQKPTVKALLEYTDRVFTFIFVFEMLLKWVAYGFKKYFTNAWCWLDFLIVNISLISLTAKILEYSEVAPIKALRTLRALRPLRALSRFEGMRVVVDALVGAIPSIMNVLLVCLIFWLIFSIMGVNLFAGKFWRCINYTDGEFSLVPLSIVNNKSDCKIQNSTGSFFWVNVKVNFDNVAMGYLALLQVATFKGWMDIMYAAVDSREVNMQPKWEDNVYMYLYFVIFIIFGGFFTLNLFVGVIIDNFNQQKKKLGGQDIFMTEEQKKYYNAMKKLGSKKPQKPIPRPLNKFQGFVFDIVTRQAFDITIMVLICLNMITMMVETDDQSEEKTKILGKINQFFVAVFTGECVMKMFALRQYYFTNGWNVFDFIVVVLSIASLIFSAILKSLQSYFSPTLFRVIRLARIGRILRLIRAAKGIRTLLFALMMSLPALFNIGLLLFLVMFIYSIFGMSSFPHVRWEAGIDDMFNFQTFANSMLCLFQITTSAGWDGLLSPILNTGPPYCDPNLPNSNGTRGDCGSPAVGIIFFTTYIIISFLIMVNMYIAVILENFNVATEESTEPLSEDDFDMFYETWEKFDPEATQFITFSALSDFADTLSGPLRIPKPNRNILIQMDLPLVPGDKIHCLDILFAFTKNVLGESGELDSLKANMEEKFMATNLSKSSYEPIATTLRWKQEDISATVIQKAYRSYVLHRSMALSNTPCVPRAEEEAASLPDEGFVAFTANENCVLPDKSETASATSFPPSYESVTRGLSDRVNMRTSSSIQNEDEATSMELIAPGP
In words: In vitro inhibition of Nav1.8, manual patch clamp on HEK293 cells stably expressing human Nav1.8. The assay is classed as cell-based. The following applies: 100 nM, human Nav1.8, manual patch clamp. As for the experimental part: Bioactivity Test 1: In Vitro Inhibition of Nav1.8 by the Compound
By using a manual patch clamp on HEK293 cells stably expressing human Nav1.8, currents on Nav1.8 before and after administration of the compound were compared after the currents on Nav1.8 were stable, to obtain the effect of the compound on the Nav1.8 channel.
The to-be-tested compound was dissolved in DMSO to prepare a 9 mM stock solution, which was taken and dissolved in extracellular fluid at a desired concentration on the day of testing. The extracellular fluid included the following ingredients (mM): NaCl, 137; KCl, 4; CaCl2, 1.8; MgCl2, 1; HEPES, 10; glucose, 10; and pH 7.4 (NaOH titration). All reagents were purchased from Sigma (St. Louis, MO).
The cells were clamped at −80 mV and depolarized with a sustained 10 ms square wave to 10 mV to obtain a current on Nav1.8. This process was repeated every 5 seconds. A maximum current caused by the square wave was detected. After the current is stable, the to-be-tested compound (dissolved in the extracellular fluid at the desired concentration) was perfused. After the current is stable, the strength of blocking Nav1.8 by the compound was calculated based on the currents before and after perfusion of the compound. pCLAMP 10 (Molecular Devices, Union City, CA) was used. That the current is stable means that the current changes over time within a limited range.
In general terms: In patch-clamp work, channel activity is measured electrically.
Turning to “rel-(2R,3S,4S,5R)-3-(3,4-difluoro-2-methoxyphenyl)-4,5-dimethyl-N-(4-oxo-3H-quinazolin-6-yl)-5-(trifluoromethyl)tetrahydrofuran-2-carboxamide [Example 4]”, the “Inhibitory activity (inhibition/% at 100 nM concentration)” value is “A (A ≥ 50)”.

Staying with this assay, now noted: HEK293, 100 nM, human Nav1.8, manual patch clamp, read-out: Inhibitory activity (inhibition/% at 100 nM concentration).
Regarding `CN=S(C)(=O)c1cc(NC(=O)C2O[C@]3(C(F)(F)F)CC[C@]3(C)[C@H]2c2ccc(F)c(F)c2OC)ccn1` (relative stereo) [Example 94, rel-(1R,3R,4S,5R)-4-(3,4-difluoro-2-methoxyphenyl)-N-(2-(N,S-dimethylsulfonyl)pyridin-4-yl)-5-methyl-1-(trifluoromethyl)-2-oxabicyclo[3.2.0]heptane-3-carboxamide], the inhibition at 0.1 µM was at least 50%.

`COc1c([C@H]2C(C(=O)Nc3ccnc(OC[C@H](O)CO)c3)O[C@]3(C(F)(F)F)CC[C@]23C)ccc(F)c1F` (relative stereo) [Example 96, rel-(1R,3R,4S,5R)-4-(3,4-difluoro-2-methoxyphenyl)-N-(2-(R)-2,3-dihydroxypropoxypyridin-4-yl)-5-methyl-1-trifluoromethyl-2-oxabicyclo[3.2.0]heptane-3-carboxamide]: the inhibition at 0.1 µM was at least 50%.

On to `COc1c([C@H]2[C@H](C(=O)Nc3ccc(C(O)CO)nc3)O[C@]3(C(F)(F)F)CC[C@]23C)ccc(F)c1F` (relative stereo) [Example 98, rel-(1R,3R,4S,5R)-4-(3,4-difluoro-2-methoxyphenyl)-N-(6-(1,2-dihydroxyethyl)pyridin-3-yl)-5-methyl-1-trifluoromethyl-2-oxabicyclo[3.2.0]heptane-3-carboxamide], for which the inhibition at 0.1 µM is at least 50%.

As for `COc1c([C@H]2[C@H](C(=O)Nc3ccnc(N4CCN(C)CC4=O)c3)O[C@]3(C(F)(F)F)CC[C@]23C)ccc(F)c1F` (relative stereo) [Example 100, rel-(1R,3R,4S,5R)-4-(3,4-difluoro-2-methoxyphenyl)-5-methyl-N-(2-(4-methyl-2-oxopiperazin-1-yl)pyridin-4-yl)-1-(trifluoromethyl)-2-oxabicyclo[3.2.0]heptane-3-carboxamide], the inhibition at 0.1 µM is at least 50%.

As to `COc1c([C@H]2[C@H](C(=O)Nc3ccnc(S(C)(=O)=O)c3)O[C@]3(C(F)(F)F)CC[C@]23C)ccc(F)c1F` (relative stereo) [Example 101, rel-(1R,3R,4S,5R)-4-(3,4-difluoro-2-methoxyphenyl)-5-methyl-N-(2-methylsulfonyl)pyridin-4-yl)-1-trifluoromethyl-2-oxabicyclo[3.2.0]heptane-3-carboxamide], the inhibition at 0.1 µM is at least 50%.

On to `COc1c(C2C(C(=O)Nc3ccc(C(N)=O)c(C(N)=O)c3)OC(C)(C(F)(F)F)C2C)ccc(F)c1F` (single isomer, unassigned) [Example 30-1], for which the inhibition at 0.1 µM was under 50%.

As for `COc1c([C@H]2[C@H](C(=O)Nc3ccnc4c(N)nccc34)O[C@@](C)(C(F)(F)F)[C@H]2C)ccc(F)c1F` [Example 7], the inhibition at 0.1 µM is at least 50%.

For the compound `COc1c(C2C(C(=O)Nc3cc(F)c(C(N)=O)c(C(N)=O)c3)OC(C)(C(F)(F)F)C2C)ccc(F)c1F` [Example 80, rel-5-((2R,3S,4S,5R)-3-(3,4-difluoro-2-methoxyphenyl)-4,5-dimethyl-5-(trifluoromethyl)tetrahydrofuran-2-carboxamide)-3-fluorophthalic amine], the inhibition at 0.1 µM was at least 50%.

In the case of `COc1c(C2C(C(=O)Nc3ccc(C(N)=O)c(C(N)=O)c3)OC3(C(F)(F)F)CCC23C)ccc(F)c1F` [Example 86, rel-4-((1R,3R,4S,5R)-4-(3,4-difluoro-2-methoxyphenyl)-5-methyl-1-(trifluoromethyl)-2-oxabicyclo[3.2.0]heptane-3-formylamino)phthalamide], the inhibition at 0.1 µM is at least 50%.

In the case of `COc1c(C2C(C(=O)Nc3ccnc(OCC(O)CO)c3)OC3(C(F)(F)F)CCC23C)ccc(F)c1F` [Example 95, rel-(1R,3R,4S,5R)-4-(3,4-difluoro-2-methoxyphenyl)-N-(2-(S)-2,3-dihydroxypropoxypyridin-4-yl)-5-methyl-1-trifluoromethyl-2-oxabicyclo[3.2.0]heptane-3-carboxamide], the inhibition at 0.1 µM is at least 50%.

As for `COc1c([C@H]2[C@H](C(=O)Nc3ccc(C(N)=O)nc3)O[C@]3(C(F)(F)F)CC[C@]23C)ccc(F)c1F` [Example 97, 5-((1S,3R,4S,5S)-4-(3,4-difluoro-2-methoxyphenyl)-5-methyl-1-(trifluoromethyl)-2-oxabicyclo[3.2.0]heptane-3-formylamino)pyridinecarboxamide], the inhibition at 0.1 µM was at least 50%.

With `COc1c([C@H]2C(C(=O)Nc3ccc(S(N)(=O)=O)nc3)O[C@]3(C(F)(F)F)CC[C@]23C)ccc(F)c1F` (stereo partly shown) [Example 99], the inhibition at 0.1 µM was at least 50%.
